Measurements taken from patent US20250059198A1, “BRM DEGRADING COMPOUNDS AND ASSOCIATED METHODS OF USE” (Arvinas Operations, Inc., priority 2021, published 2025).

Target: T1, BRM (Homo sapiens, UniProt P51531)
T1 construct: Western Blot Screen of BRM Degradation in SW1573 Cells; endogenous in cells; host or cells: SW1573 cells
Test: BRM degradation (Dmax and DC50) in SW1573 cells, Western blot screen / In-Cell Western screen
Type: cell-based
Settings: overnight (18-20 hours) treatment; for Dmax: read-out: Dmax (%)** (% degraded)
Method in brief: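 Dmax and DC50 were derived from BRM levels normalised to an alpha-tubulin control, measured by chemiluminescent Western blotting of lysates or by PFA-fixed In-Cell Western on LI-COR Odyssey. SW1573 cells received compound overnight (18–20 h, 0.1% DMSO final).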

T1 sequence (P51531 whole entry): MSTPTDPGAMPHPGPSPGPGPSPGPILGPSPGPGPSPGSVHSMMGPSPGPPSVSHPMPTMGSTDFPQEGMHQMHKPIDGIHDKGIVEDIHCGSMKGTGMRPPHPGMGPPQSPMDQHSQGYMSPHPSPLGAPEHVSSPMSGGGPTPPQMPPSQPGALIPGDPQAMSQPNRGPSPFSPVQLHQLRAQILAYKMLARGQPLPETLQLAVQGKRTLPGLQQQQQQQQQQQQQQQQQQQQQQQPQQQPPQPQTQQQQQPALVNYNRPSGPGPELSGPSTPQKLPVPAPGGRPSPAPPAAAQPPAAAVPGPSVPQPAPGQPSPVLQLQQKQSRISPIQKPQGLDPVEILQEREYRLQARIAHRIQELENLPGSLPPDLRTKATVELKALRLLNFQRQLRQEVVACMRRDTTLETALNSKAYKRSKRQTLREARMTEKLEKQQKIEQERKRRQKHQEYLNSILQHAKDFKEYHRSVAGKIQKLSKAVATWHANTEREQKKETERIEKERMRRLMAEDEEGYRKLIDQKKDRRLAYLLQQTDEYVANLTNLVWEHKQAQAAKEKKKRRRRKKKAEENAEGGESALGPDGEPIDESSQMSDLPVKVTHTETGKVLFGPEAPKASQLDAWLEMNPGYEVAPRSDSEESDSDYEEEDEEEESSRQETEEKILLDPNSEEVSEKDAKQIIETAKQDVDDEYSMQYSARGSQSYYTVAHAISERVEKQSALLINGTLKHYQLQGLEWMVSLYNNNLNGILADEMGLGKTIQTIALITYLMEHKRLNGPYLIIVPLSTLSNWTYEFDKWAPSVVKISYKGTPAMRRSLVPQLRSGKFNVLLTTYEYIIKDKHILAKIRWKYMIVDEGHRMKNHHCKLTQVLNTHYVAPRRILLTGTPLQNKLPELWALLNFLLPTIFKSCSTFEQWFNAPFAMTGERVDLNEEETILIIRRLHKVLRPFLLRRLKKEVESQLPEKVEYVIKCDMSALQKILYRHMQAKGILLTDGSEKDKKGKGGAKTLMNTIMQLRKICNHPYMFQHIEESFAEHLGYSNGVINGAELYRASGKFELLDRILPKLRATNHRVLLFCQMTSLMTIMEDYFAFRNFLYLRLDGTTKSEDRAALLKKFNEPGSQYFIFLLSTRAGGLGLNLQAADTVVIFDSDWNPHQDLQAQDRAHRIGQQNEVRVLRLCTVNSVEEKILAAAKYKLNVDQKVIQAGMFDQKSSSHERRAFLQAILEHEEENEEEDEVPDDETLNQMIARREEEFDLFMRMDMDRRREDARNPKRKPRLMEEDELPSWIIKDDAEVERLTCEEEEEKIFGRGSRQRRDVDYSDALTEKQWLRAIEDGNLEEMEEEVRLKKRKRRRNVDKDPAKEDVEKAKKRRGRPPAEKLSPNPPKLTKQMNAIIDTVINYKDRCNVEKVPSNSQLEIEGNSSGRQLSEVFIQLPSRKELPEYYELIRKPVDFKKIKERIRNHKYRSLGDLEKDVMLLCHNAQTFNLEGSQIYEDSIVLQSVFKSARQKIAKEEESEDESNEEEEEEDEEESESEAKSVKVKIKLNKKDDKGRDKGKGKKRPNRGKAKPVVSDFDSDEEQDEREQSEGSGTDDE

SMILES | DC50 | Dmax
Cc1ncsc1-c1ccc([C@H](C)NC(=O)[C@@H]2C[C@@H](O)CN2C(=O)[C@@H](c2cc(N3CCC(CN4CCC5(CC4)CC(N4CCO[C@@H](CN6C7CCC6CN(c6cc(-c8ccccc8O)nnc6N)C7)C4)C5)CC3)no2)C(C)C)cc1 [Compound 119, (2S,4R)-1-[(2R)-2-{3-[4-({2-[(2R)-2-({3-[3-amino-6-(2-hydroxyphenyl)pyridazin-4-yl]-3,8-diazabicyclo[3.2.1]octan-8-yl}methyl)morpholin-4-yl]-7-azaspiro[3.5]nonan-7-yl}methyl)piperidin-1-yl]-1,2-oxazol-5-yl}-3-methylbutanoyl]-4-hydroxy-N-[(1S)-1-[4-(4-methyl-1,3-thiazol-5-yl)phenyl]ethyl]pyrrolidine-2-carboxamide] | < 2.5 nM | > 75%
CC(C)[C@@H](C(=O)N1C[C@H](O)C[C@H]1C(=O)N[C@@H](C)c1ccc(C#N)cc1)c1cc(N2CCC(C(=O)N3CCC(O[C@H]4C[C@H](Oc5cc(N6C7CCC6CN(c6cc(-c8ccccc8O)nnc6N)C7)ccn5)C4)CC3)CC2)no1 [Compound 138, (2S,4R)-N-[(1S)-1-(4-cyanophenyl)ethyl]-4-hydroxy-1-[(2R)-3-methyl-2-[3-(4-{4-[(1r,3r)-3-[(4-{3-[3-amino-6-(2-hydroxyphenyl)pyridazin-4-yl]-3,8-diazabicyclo[3.2.1]octan-8-yl}pyridin-2-yl)oxy]cyclobutoxy]piperidine-1-carbonyl}piperidin-1-yl)-1,2-oxazol-5-yl]butanoyl]pyrrolidine-2-carboxamide] | < 2.5 nM | > 75%
CC(C)[C@@H](C(=O)N1C[C@H](O)C[C@H]1C(=O)N[C@@H](C)c1ccc(-c2ccnn2C)cc1)c1cc(N2CCC(CN3CCC(O[C@H]4C[C@H](Oc5cc(/C=C/c6cc(-c7ccccc7O)nnc6N)ccn5)C4)CC3)CC2)no1 [Compound 30, (2S,4R)-4-hydroxy-N-[(1S)-1-[4-(1-methyl-1H-pyrazol-5-yl)phenyl]ethyl]-1-[(2R)-3-methyl-2-{3-[4-({4-[(1r,3r)-3-({4-[(1E)-2-[3-amino-6-(2-hydroxyphenyl)pyridazin-4-yl]ethenyl]pyridin-2-yl}oxy)cyclobutoxy]piperidin-1-yl}methyl)piperidin-1-yl]-1,2-oxazol-5-yl}butanoyl]pyrrolidine-2-carboxamide] | < 2.5 nM | > 75%
Cc1ncsc1-c1ccc([C@H](C)NC(=O)[C@@H]2C[C@@H](O)CN2C(=O)[C@@H](c2cc(N3CCC(CN4CC[C@H](OC(=O)N5CCN(c6cc(-c7ccccc7O)nnc6N)CC5)[C@@H](F)C4)CC3)no2)C(C)C)cc1 [Compound 104, (3S,4S)-3-fluoro-1-[(1-{5-[(2R)-1-[(2S,4R)-4-hydroxy-2-{[(1S)-1-[4-(4-methyl-1,3-thiazol-5-yl)phenyl]ethyl]carbamoyl}pyrrolidin-1-yl]-3-methyl-1-oxobutan-2-yl]-1,2-oxazol-3-yl}piperidin-4-yl)methyl]piperidin-4-yl 4-[3-amino-6-(2-hydroxyphenyl)pyridazin-4-yl]piperazine-1-carboxylate] | < 2.5 nM | > 75%
Cc1ncsc1-c1ccc([C@H](C)NC(=O)C2C[C@@H](O)CN2C(=O)[C@@H](c2cc(N3CCC(CN4CC[C@@H](Oc5cc(N6C7CCC6CN(c6cc(-c8ccccc8O)nnc6N)C7)ccn5)[C@@H](F)C4)CC3)no2)C(C)C)cc1 (stereo in doubt) [Compound 49, (2S,4R)-1-[(2R)-2-[3-(4-{[(3S,4R)-4-[(4-{3-[3-amino-6-(2-hydroxyphenyl)pyridazin-4-yl]-3,8-diazabicyclo[3.2.1]octan-8-yl}pyridin-2-yl)oxy]-3-fluoropiperidin-1-yl]methyl}piperidin-1-yl)-1,2-oxazol-5-yl]-3-methylbutanoyl]-4-hydroxy-N-[(1S)-1-[4-(4-methyl-1,3-thiazol-5-yl)phenyl]ethyl]pyrrolidine-2-carboxamide] | < 2.5 nM | > 75%
Cc1ncsc1-c1ccc([C@H](C)NC(=O)[C@@H]2C[C@@H](O)CN2C(=O)[C@@H](c2cc(N3CCC(CN4CCC(O[C@H]5C[C@H](N6CCC(C(C)n7ncc(-c8cc(-c9ccccc9O)nnc8N)c7F)CC6)C5)CC4)CC3)no2)C(C)C)cc1 (stereo partly drawn) [Compound 100, (2S,4R)-4-hydroxy-N-[(1S)-1-[4-(4-methyl-1,3-thiazol-5-yl)phenyl]ethyl]-1-[(2R)-3-methyl-2-{3-[4-({4-[(1r,3r)-3-[4-(1-{4-[3-amino-6-(2-hydroxyphenyl)pyridazin-4-yl]-5-fluoro-1H-pyrazol-1-yl}ethyl)piperidin-1-yl]cyclobutoxy]piperidin-1-yl}methyl)piperidin-1-yl]-1,2-oxazol-5-yl}butanoyl]pyrrolidine-2-carboxamide] | < 2.5 nM | > 75%
Cc1ncsc1-c1ccc([C@H](C)NC(=O)[C@@H]2C[C@@H](O)CN2C(=O)[C@@H](c2cc(OCCN3CCN(CCOc4cc(N5C6CCC5CN(c5cc(-c7cc(F)ccc7O)nnc5N)C6)ccn4)[C@H](C)C3)no2)C(C)C)cc1 [Compound 148, (2S,4R)-1-[(2R)-2-(3-{2-[(3R)-4-{2-[(4-{3-[3-amino-6-(5-fluoro-2-hydroxyphenyl)pyridazin-4-yl]-3,8-diazabicyclo[3.2.1]octan-8-yl}pyridin-2-yl)oxy]ethyl}-3-methylpiperazin-1-yl]ethoxy}-1,2-oxazol-5-yl)-3-methylbutanoyl]-4-hydroxy-N-[(1S)-1-[4-(4-methyl-1,3-thiazol-5-yl)phenyl]ethyl]pyrrolidine-2-carboxamide] | < 2.5 nM | > 75%
CC(C)[C@@H](C(=O)N1C[C@H](O)C[C@H]1C(=O)N[C@@H](C)c1ccc(C#N)cc1)c1cc(N2CCC(CN3CC[C@@H](Oc4cc(N5C6CCC5CN(c5cc(-c7ccccc7O)nnc5N)C6)ccn4)C(F)(F)C3)CC2)no1 [Compound 147, (2S,4R)-1-[(2R)-2-[3-(4-{[(4R)-4-[(4-{3-[3-amino-6-(2-hydroxyphenyl)pyridazin-4-yl]-3,8-diazabicyclo[3.2.1]octan-8-yl}pyridin-2-yl)oxy]-3,3-difluoropiperidin-1-yl]methyl}piperidin-1-yl)-1,2-oxazol-5-yl]-3-methylbutanoyl]-N-[(1S)-1-(4-cyanophenyl)ethyl]-4-hydroxypyrrolidine-2-carboxamide] | 2.5 to 10 nM | > 75%
Cc1ncsc1-c1ccc([C@H](C)NC(=O)[C@@H]2C[C@@H](O)CN2C(=O)[C@@H](c2cc(N3CCC(CN4CCC5(CC4)CC(N4CCO[C@@H](CNC6CCN(c7cc(-c8ccccc8O)nnc7N)CC6)C4)C5)CC3)no2)C(C)C)cc1 [Compound 113, (2S,4R)-1-[(2R)-2-{3-[4-({2-[(2S)-2-[({1-[3-amino-6-(2-hydroxyphenyl)pyridazin-4-yl]piperidin-4-yl}amino)methyl]morpholin-4-yl]-7-azaspiro[3.5]nonan-7-yl}methyl)piperidin-1-yl]-1,2-oxazol-5-yl}-3-methylbutanoyl]-4-hydroxy-N-[(1S)-1-[4-(4-methyl-1,3-thiazol-5-yl)phenyl]ethyl]pyrrolidine-2-carboxamide] | < 2.5 nM | > 75%
CC(C)[C@H](C(=O)N1C[C@H](O)C[C@H]1C(=O)N[C@@H](C)c1ccc(-c2ccnn2C)cc1)c1cc(N2CCC(CN3CCC(O[C@H]4C[C@H](OC(=O)N5CCN(c6cc(-c7ccccc7O)nnc6N)CC5)C4)CC3)CC2)no1 [Compound 114, (1r,3r)-3-({1-[(1-{5-[(2S)-1-[(2S,4R)-4-hydroxy-2-{[(1S)-1-[4-(1-methyl-1H-pyrazol-5-yl)phenyl]ethyl]carbamoyl}pyrrolidin-1-yl]-3-methyl-1-oxobutan-2-yl]-1,2-oxazol-3-yl}piperidin-4-yl)methyl]piperidin-4-yl}oxy)cyclobutyl 4-[3-amino-6-(2-hydroxyphenyl)pyridazin-4-yl]piperazine-1-carboxylate] | ≥ 30 nM | –
Cc1ncsc1-c1ccc([C@H](C)NC(=O)[C@@H]2C[C@@H](O)CN2C(=O)[C@@H](c2cc(N3CCC(CN4CCC5(CC4)CC(N4CCC[C@@H](CN6C7CCC6CN(c6cc(-c8ccccc8O)nnc6N)C7)C4)C5)CC3)no2)C(C)C)cc1 [Compound 70, (2S,4R)-1-[(2R)-2-{3-[4-({2-[(3R)-3-({3-[3-amino-6-(2-hydroxyphenyl)pyridazin-4-yl]-3,8-diazabicyclo[3.2.1]octan-8-yl}methyl)piperidin-1-yl]-7-azaspiro[3.5]nonan-7-yl}methyl)piperidin-1-yl]-1,2-oxazol-5-yl}-3-methylbutanoyl]-4-hydroxy-N-[(1S)-1-[4-(4-methyl-1,3-thiazol-5-yl)phenyl]ethyl]pyrrolidine-2-carboxamide] | < 2.5 nM | > 75%
CC(C)[C@H](C(=O)N1C[C@H](O)C[C@H]1C(=O)N[C@@H](C)c1ccc(C#N)cc1)c1cc(N2CCC(OCCN3CCC(Oc4cc(N5CCN(c6cc(-c7ccccc7O)nnc6N)CC5)ccn4)CC3)CC2)no1 [Compound 154, (2S,4R)-1-[(2S)-2-{3-[4-(2-{4-[(4-{4-[3-amino-6-(2-hydroxyphenyl)pyridazin-4-yl]piperazin-1-yl}pyridin-2-yl)oxy]piperidin-1-yl}ethoxy)piperidin-1-yl]-1,2-oxazol-5-yl}-3-methylbutanoyl]-N-[(1S)-1-(4-cyanophenyl)ethyl]-4-hydroxypyrrolidine-2-carboxamide] | ≥ 30 nM | –
Cc1ncsc1-c1ccc([C@H](C)NC(=O)[C@@H]2C[C@@H](O)CN2C(=O)[C@H](c2cc(N3CCN(C(=O)[C@H]4C[C@H](Oc5cc(N6C7CCC6CN(c6cc(-c8ccccc8O)nnc6N)C7)ccn5)C4)CC3)no2)C(C)C)cc1 [Compound 118, (2S,4R)-4-hydroxy-N-[(1S)-1-[4-(4-methyl-1,3-thiazol-5-yl)phenyl]ethyl]-1-[(2S)-3-methyl-2-(3-{4-[(1r,3r)-3-[(4-{3-[3-amino-6-(2-hydroxyphenyl)pyridazin-4-yl]-3,8-diazabicyclo[3.2.1]octan-8-yl}pyridin-2-yl)oxy]cyclobutanecarbonyl]piperazin-1-yl}-1,2-oxazol-5-yl)butanoyl]pyrrolidine-2-carboxamide] | < 2.5 nM | > 75%
